Experimental data: patent EP0361645B1, “Organic hydrazine derivatives for pharmaceutical use” (ROHM AND HAAS COMPANY, priority 1988, dated 1990)

Assays:
[1] = system: dipteran larvae (both houseflies and mosquitoes) and certain coleopteran larvae; experiment: Control of larvae and ovariole development in other insect orders; format: in vivo
Text: We have observed the induction of premature head capsule apolysis by Example No. 3 in all larval stages of M. sexta. This phenomenon has also been observed in larval Lepidoptera of the families Noctuidae, Pyralidae and Pieridae. […] This latter activity is consistent with its putative ecdysonergic mechanism of action.

M. sexta = experiment: Hemolymph ecdysteroid titers (radioimmunoassay) and weight gain of fourth instar M. sexta fed compound in artificial diet; format: in vivo, Manduca sexta
Protocol: The invention will now be further described by way of exemplification and by reference to the drawings in which; • Figure 1. Both 20-hydroxyecdysone and Example No. 3 induce process elaboration (A) and inhibition of cell proliferation (B) in Kr cells in a dose-dependent manner. Initial cell density was 2 X 10^6 cells/ml; after incubation of 1 ml aliquots of the cells with the compound for 48 hours the cells were triturated gently and the percentage of cells responding (with processes longer than approximately 17 um, see Cherbas et al. 189 Wilhelm Roux's Arch. 1 (1980)) and total cell density was determined by hemocytom- eter counting, relative to ethanol (1 ul)-treated controls. Determinations were in triplicate for each dose. […] Induction of acetylcholinesterase by varying concentrations of 20-hydroxyecdysone and Example No. 3. Kr cells at an initial density of 3 X 10^6 cells/ml (10 ml per sample) were incubated with the agonist for three days. After harvesting, by centrifugation at 3000 X g, the cell pellets were washed with Robb's Drosophila saline (18, 2 X 5 ml) at 4 ° C, then lysed by sonication in 1 ml of phosphate buffer (pH 7.4, I = 0.1 M) containing 0.5 M NaCI, 0.25 M EDTA and 0.5% TRITON? X-100. See Cherbas, 197 Science 275 (1977). Triton is a registered trademark of Rohm and Haas Company for a alkylaryl polyoxyethylene glycol surfactant. After centrifugation at 16,000 X g, the supernatants were assayed for acetylcholinesterase activity by an adaptation of the method of Ellman et al., 7 Biochem. Pharmacol. 88 (1961), by subtracting out any 412 nm absorbance observed in incubations in the presence of 2 X 10-5 eserine sulfate. Thus reaction mixtures contained 50 ul of enzyme extract, 20 ul eserine (blank tubes only) and 1.0 ml of 0.5 mM acetylthiocholine, 0.3 mM dithiobisnitrobenzoic acid in phosphate buffer (pH 7.4, I = 0.1 M). Incubations were at 25 ° C for two hours; reactions in active tubes were terminated by addition of eserine. Absorbance at 412 nm was then measured. Protein concentration in extracts was measured by the Biorad method. […] Scatchard plot of ^3H-ponasterone A binding to Kr cell cytosolic receptor extracts in the presence of differing concentrations of Example No. 3. Cytosolic extract preparation and ecdysteroid receptor assays were essentially as described in Sage, 111 Meth. in Enzymol. 458 (1985). Example No. 3 was added in 1 ul DMSO to 50 ul of radioligand in 10 mM Tris buffer (pH 7.2) and 50 ul of undiluted cytosol extract. After incubation overnight at 0.5 ° C, bound label was separated from free by addition of 300 ul 1% HCI-washed charcoal (Sigma) and 0.1% Dextran T70 (Pharmacia) in Tris buffer, centrifugation (13,000 X g, 3 min, 4 ° C) and liquid scintillation counting of a 300 ul aliquot of the supernatant in 15 ml Hydrofluor (National Diagnostics). Points are means of duplicate determinations. […] Relative ability of 20 hydroxyecdysone and Example No. 3 to displace ^3H-ponasterone A from cytosolic receptor extracts. Conditions were as in Figure 3 except that only 0.5 nM ponasterone A was used. • Points are means of duplicate determinations. For 20-hydroxyecdysone EC50 = 0.1 uM while for Example No. 3 EC50 = 3.0 uM. Control binding = 10 femtomoles ^3H-ponasterone A bound per mg cytosol protein. • Figure 4. […] Ecdysteroid titers were measured by a radioimmunoassay adapted from Warren et al., 40 Experientia 393 (1984) with Protein A-Staph. aureus suspension (Sigma) used as the reagent to separate bound from free ligand. […]

[2] = L4 M. sexta, 10 ppm in artificial diet

With `CC(C)(C)N(NC(=O)c1ccccc1)C(=O)c1ccccc1` [Example No. 3, N'-t-butyl-N,N'-dibenzoylhydrazine] the control of larvae ([1]; houseflies, mosquitoes, certain coleopteran larvae) was “controls”, the ovariole development ([1]; in all three orders) was “inhibit ovariole development” and the “ecdysone titers relative to control levels” value (M. sexta; L4D0 animals, within four hours after the initiation of feeding) was “significantly depressed”. The “outcome of the molt” value (M. sexta; L4 M. sexta treated larvae) was “eventually died without completing the molt”, the “feeding and weight gain” value (M. sexta; [2]) was “further feeding and weight gain ceases” and the immunoreactive ecdysone titers (M. sexta; [2]) was “without any elevation of ecdysone titers”. The “time to head capsule slippage” value (M. sexta; [2]) was 24 h.
